Test results reported in ChEMBL document CHEMBL3351435, “New pyrrole derivatives with potent tubulin polymerization inhibiting activity as anticancer agents including hedgehog-dependent cancer” (J Med Chem, 2014).
Active and inactive are the calls of the source. No cut-off for these calls is given here.

Assays:
[1] = biological target: Tubulin; experiment: Inhibition of tubulin (unknown origin) polymerization incubated 15 mins prior to GTP addition by spectrophotometry; assay type: protein-complex assay, Homo sapiens
[2] = system: MCF7; experiment: Cytotoxicity against human MCF7 cells after 96 hrs by Giemsa staining-based light microscopy; assay type: functional, cell-based; conditions: MCF7, 96 h
[3] = biological target: Tubulin (Homo sapiens) (UniProt P68371+Q9H4B7+P0DPH7+P68366+Q13509+Q71U36+P04350+Q3ZCM7+P07437+P68363+Q9BQE3+Q6PEY2+Q13885+Q9BVA1+Q9BUF5); experiment: Displacement of [3H]colchicine from tubulin (unknown origin) at 5 uM after 10 mins; assay type: protein-complex assay
[4] = system: HeLa; experiment: Cytotoxicity against human HeLa cells assessed as growth inhibition after 48 hrs by MTT method; assay type: functional, cell-based
[5] = system: HT-29; experiment: Cytotoxicity against human HT-29 cells assessed as growth inhibition after 48 hrs by MTT method; assay type: functional, cell-based; conditions: HT-29, 48 h
[6] = system: A549; experiment: Cytotoxicity against human A549 cells assessed as growth inhibition after 48 hrs by MTT method; assay type: functional, cell-based; conditions: A549, 48 h
[7] = system: NCI/ADR-RES; experiment: Cytotoxicity against human NCI/ADR-RES cells assessed as growth inhibition after 96 hrs by Giemsa staining-based light microscopy; assay type: functional, cell-based
[8] = system: HeLa; experiment: Cell cycle arrest in human HeLa cells assessed as mitotic rounded-up phenotype at 20 nM by light microscopy; assay type: functional, cell-based
[9] = system: HeLa; experiment: Cell cycle arrest in human HeLa cells assessed as mitotic rounded-up phenotype at 100 nM by light microscopy; assay type: functional, cell-based
[10] = system: HeLa; experiment: Induction of apoptosis in human HeLa cells assessed as blockage of mitotic progression at 100 nM by annexin V staining-based immunofluorescence microscopy; assay type: functional, cell-based
[11] = system: HeLa; experiment: Induction of apoptosis in human HeLa cells assessed as blockage of mitotic progression at 20 to 100 nM by annexin V staining-based immunofluorescence microscopy; assay type: functional, cell-based
[12] = system: HeLa; experiment: Cell cycle arrest in human HeLa cells assessed as reduction in mitotic slippage at 100 nM by annexin V staining-based immunofluorescence microscopy; assay type: functional
[13] = system: HeLa; experiment: Cell cycle arrest in human HeLa cells by propidium iodide staining-based flow cytometry; assay type: functional
[14] = Cytotoxicity against human PC3 cells assessed as growth inhibition after 48 hrs by MTT method; assay type: functional, cell-based; conditions: PC-3, 48 h
[15] = system: HepG2; experiment: Cytotoxicity against human HepG2 cells assessed as growth inhibition after 48 hrs by MTT method; assay type: functional, cell-based; conditions: HepG2, 48 h
[16] = system: RD; experiment: Cell cycle arrest in human RD cells assessed as accumulation at G2/M phase at 500 nM after 24 hrs by propidium iodide staining-based flow cytometry; assay type: functional
[17] = system: HepG2; experiment: Cell cycle arrest in human HepG2 cells assessed as accumulation at G2/M phase at 500 nM after 24 hrs by propidium iodide staining-based flow cytometry; assay type: functional
[18] = Cell cycle arrest in human PC3 cells assessed as rounded cells at 500 nM after 24 hrs by propidium iodide staining-based flow cytometry; assay type: functional; conditions: PC-3
[19] = system: RD; experiment: Cell cycle arrest in human RD cells assessed as rounded cells at 500 nM after 24 hrs by propidium iodide staining-based flow cytometry; assay type: functional
[20] = system: RD; experiment: Cell cycle arrest in human RD cells at 500 nM incubated for 24 hrs followed by compound washout measured after 24 hrs; assay type: functional, cell-based
[21] = system: HepG2; experiment: Induction of apoptosis in human HepG2 cells at 500 to 2000 nM after 48 hrs by annexin-V/propidium iodide staining-based flow cytometry; assay type: functional, cell-based
[22] = system: K562; experiment: Cytotoxicity against human K562 cells assessed as growth inhibition after 96 hrs by Giemsa staining-based light microscopy; assay type: functional, cell-based; conditions: K562, 96 h
[23] = Inhibition of hedgehog signaling in mouse NIH/3T3 Shh-Light II cells after 48 hrs by luciferase reporter gene assay; assay type: functional, cell-based
[24] = Cytotoxicity against human D283 cells; assay type: functional, cell-based
[25] = Cmax in CD-1 mouse at 5 mg/kg, iv; assay type: ADME, organism-based; design: dose 5 mg/kg, route intravenous; conditions: in vivo
[26] = Initial plasma concentration in CD-1 mouse at 5 mg/kg, iv; assay type: ADME, organism-based; design: dose 5 mg/kg, route intravenous
[27] = system: Mus musculus; experiment: Tlast in CD-1 mouse at 5 mg/kg, iv; assay type: ADME, organism-based; design: dose 5 mg/kg, route intravenous; conditions: in vivo
[28] = system: Mus musculus; experiment: Clast in CD-1 mouse at 5 mg/kg, iv; assay type: ADME, organism-based; design: dose 5 mg/kg, route intravenous; conditions: in vivo
[29] = Mean residence time in CD-1 mouse at 5 mg/kg, iv; assay type: ADME, organism-based; design: dose 5 mg/kg, route intravenous; conditions: in vivo
[30] = Clearance in CD-1 mouse at 5 mg/kg, iv; assay type: ADME, organism-based; design: dose 5 mg/kg, route intravenous; conditions: in vivo
[31] = Volume of distribution at steady state in CD-1 mouse at 5 mg/kg, iv; assay type: ADME, organism-based; design: dose 5 mg/kg, route intravenous; conditions: in vivo, read-out: Vdss
[32] = AUC infinity in CD-1 mouse at 5 mg/kg, iv; assay type: ADME, organism-based; design: time infinity, dose 5 mg/kg, route intravenous; conditions: plasma
[33] = Cmax in CD-1 mouse at 15 mg/kg, po; assay type: ADME, organism-based; design: dose 15 mg/kg, route oral; conditions: in vivo
[34] = Tmax in CD-1 mouse at 15 mg/kg, po; assay type: ADME, organism-based; design: dose 15 mg/kg, route oral; conditions: in vivo
[35] = system: Mus musculus; experiment: Tlast in CD-1 mouse at 15 mg/kg, po; assay type: ADME, organism-based; design: dose 15 mg/kg, route oral; conditions: in vivo
[36] = Elimination half life in CD-1 mouse at 15 mg/kg, po; assay type: ADME, organism-based; design: dose 15 mg/kg, route oral; conditions: in vivo, read-out: beta t1/2
[37] = Mean residence time in CD-1 mouse at 15 mg/kg, po; assay type: ADME, organism-based; design: dose 15 mg/kg, route oral; conditions: in vivo
[38] = system: Mus musculus; experiment: AUC (0 to 480 mins) in CD-1 mouse at 15 mg/kg, po; assay type: ADME, organism-based, Plasma; design: time < 8 hr, dose 15 mg/kg, route oral; conditions: in vivo, 8 h
[39] = system: Mus musculus; experiment: Oral bioavailability (last) in CD-1 mouse at 15 mg/kg; assay type: ADME, organism-based; conditions: in vivo
[40] = biological target: CYP2C19 (Homo sapiens, UniProt P33261); experiment: Inhibition of human CYP2C19 using tranylcypromine as substrate at 1 uM; assay type: ADME; conditions: probe tranylcypromine
Chain of CYP2C19 (P33261 whole entry): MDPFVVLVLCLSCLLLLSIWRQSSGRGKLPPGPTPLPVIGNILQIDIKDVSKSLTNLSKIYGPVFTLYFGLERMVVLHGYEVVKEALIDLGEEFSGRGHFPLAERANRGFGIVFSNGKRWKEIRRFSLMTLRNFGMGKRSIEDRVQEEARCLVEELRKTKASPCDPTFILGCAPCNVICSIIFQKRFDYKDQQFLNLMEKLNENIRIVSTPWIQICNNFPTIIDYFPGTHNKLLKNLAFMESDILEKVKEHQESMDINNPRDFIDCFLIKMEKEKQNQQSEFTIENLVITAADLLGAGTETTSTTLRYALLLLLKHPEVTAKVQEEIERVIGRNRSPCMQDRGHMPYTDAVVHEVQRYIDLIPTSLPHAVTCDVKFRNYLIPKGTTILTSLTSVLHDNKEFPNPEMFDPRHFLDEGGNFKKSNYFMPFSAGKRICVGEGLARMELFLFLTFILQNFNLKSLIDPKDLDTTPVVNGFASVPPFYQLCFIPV

[41] = biological target: CYP2C9 (Homo sapiens, UniProt P11712); experiment: Inhibition of human CYP2C9 using sulfaphenazole as substrate at 1 uM; assay type: ADME; conditions: probe sulfaphenazole
Chain of CYP2C9 (P11712 whole entry): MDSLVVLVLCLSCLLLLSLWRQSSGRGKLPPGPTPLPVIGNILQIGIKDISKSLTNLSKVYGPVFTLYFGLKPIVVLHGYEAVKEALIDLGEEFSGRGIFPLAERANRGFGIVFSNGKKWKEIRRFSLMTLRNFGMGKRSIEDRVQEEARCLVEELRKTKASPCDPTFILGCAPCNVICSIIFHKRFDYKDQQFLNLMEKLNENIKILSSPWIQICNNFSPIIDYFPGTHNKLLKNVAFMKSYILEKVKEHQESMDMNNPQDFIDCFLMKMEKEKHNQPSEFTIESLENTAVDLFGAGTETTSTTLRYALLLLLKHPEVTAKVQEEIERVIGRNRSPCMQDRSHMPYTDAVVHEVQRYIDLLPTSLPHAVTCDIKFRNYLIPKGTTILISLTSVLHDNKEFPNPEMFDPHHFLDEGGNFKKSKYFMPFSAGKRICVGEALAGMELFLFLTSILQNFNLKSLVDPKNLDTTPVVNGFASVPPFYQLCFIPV

[42] = biological target: CYP2D6 (Homo sapiens, UniProt P10635); experiment: Inhibition of human CYP2D6 using quinidine as substrate at 1 uM; assay type: ADME; conditions: probe quinidine
Chain of CYP2D6 (P10635 whole entry): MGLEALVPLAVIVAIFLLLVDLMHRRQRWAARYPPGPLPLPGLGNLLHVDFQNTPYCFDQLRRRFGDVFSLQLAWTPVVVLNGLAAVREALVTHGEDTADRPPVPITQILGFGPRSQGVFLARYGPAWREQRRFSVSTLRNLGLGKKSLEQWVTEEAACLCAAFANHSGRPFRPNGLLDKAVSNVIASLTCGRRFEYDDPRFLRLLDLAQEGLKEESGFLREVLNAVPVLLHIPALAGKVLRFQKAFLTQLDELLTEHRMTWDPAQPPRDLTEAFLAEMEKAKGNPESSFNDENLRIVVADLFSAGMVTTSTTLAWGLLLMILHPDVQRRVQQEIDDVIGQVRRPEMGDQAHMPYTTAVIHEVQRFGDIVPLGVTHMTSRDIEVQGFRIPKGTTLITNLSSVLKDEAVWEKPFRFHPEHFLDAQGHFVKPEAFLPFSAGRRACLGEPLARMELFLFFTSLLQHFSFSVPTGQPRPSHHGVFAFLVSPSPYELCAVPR

[43] = biological target: CYP3A4 (Homo sapiens, UniProt P08684); experiment: Inhibition of human CYP3A4 using ketoconazole as substrate at 1 uM; assay type: ADME; conditions: probe ketoconazole
Chain of CYP3A4 (P08684 whole entry): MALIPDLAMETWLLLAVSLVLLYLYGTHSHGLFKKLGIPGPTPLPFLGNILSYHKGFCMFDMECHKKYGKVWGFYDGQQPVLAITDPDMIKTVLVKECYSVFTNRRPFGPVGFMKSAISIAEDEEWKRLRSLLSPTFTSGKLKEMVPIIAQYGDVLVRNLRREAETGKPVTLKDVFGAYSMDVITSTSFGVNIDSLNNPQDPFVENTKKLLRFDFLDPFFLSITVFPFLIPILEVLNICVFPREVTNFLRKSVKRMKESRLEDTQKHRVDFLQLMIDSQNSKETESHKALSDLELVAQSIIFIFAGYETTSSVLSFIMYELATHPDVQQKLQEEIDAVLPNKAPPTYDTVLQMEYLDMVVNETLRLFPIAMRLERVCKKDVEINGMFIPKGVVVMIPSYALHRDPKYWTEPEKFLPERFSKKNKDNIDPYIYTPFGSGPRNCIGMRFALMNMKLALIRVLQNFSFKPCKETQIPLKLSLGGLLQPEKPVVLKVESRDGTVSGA

[44] = cells; conditions: Homo sapiens, OVCAR-8, 96 h
Description: Cytotoxicity against human OVCAR8 cells assessed as growth inhibition after 96 hrs by Giemsa staining-based light microscopy

Structure (SMILES): COc1cc(C(=O)c2ccn(-c3cccc(N)c3)c2)cc(OC)c1OC
- IC50 [1]: 1400 nM
- IC50 [2]: 15 nM
- inhibition [3]: 86%
- IC50 [4]: 30 nM
- IC50 [5]: 60 nM
- IC50 [6]: 10 nM
- IC50 [7]: 1 nM
- Activity [8]: Active
- Activity [9]: Active
- Activity [10]: Active
- Activity [11]: Active
- Activity [12]: inactive
- Activity [13]: Dose-dependent effect
- IC50 [14]: 9.8 nM
- IC50 [15]: 274 nM
- Activity [16]: Active
- Activity [17]: Active
- Activity [18]: Active
- Activity [19]: Active
- Activity [20]: Active
- Activity [21]: Active
- IC50 [22]: 20 nM
- IC50 [23]: 676 nM
- inhibition [23]: Dose-dependent effect
- IC50 [24]: 580 nM
- Cmax [25]: 3400 ng/mL
- C0 [26]: 4150 ng/mL
- Tlast [27]: 480 min
- Clast [28]: 2.3 ng/mL
- MRT [29]: 0.517 h
- clearance [30]: 80.8 mL/min/kg
- Vd [31]: 2.7 L/kg
- AUC(0-inf) [32]: 1030 ng·h/mL
- Cmax [33]: 1770 ng/mL
- Tmax [34]: 5 min
- Tlast [35]: 480 min
- half-life [36]: 2.98 h
- MRT [37]: 2.42 h
- AUC [38]: 79441 ng·min/mL
- F [39]: 49%
- inhibition at 1 µM [40]: 72.6%
- inhibition at 1 µM [41]: 28.9%
- inhibition at 1 µM [42]: < 5%
- inhibition at 1 µM [43]: 12.2%
- IC50 [44]: 7 nM
